In patent publication US8367732B2, “Di-fluoro containing compounds as cysteine protease inhibitors” (Virobay, Inc., priority 2006, dated 2013):

Columns and labels:
Type in all cases: biochemical
Human cathepsin F = target: T1, Human cathepsin F (Homo sapiens, UniProt Q9UBX1); assay: Cathepsin F Assay; conditions: apparent inhibition constant; substrate Z-Phe-Arg-AMC; pH 6.5
T1 sequence (Q9UBX1 271-484): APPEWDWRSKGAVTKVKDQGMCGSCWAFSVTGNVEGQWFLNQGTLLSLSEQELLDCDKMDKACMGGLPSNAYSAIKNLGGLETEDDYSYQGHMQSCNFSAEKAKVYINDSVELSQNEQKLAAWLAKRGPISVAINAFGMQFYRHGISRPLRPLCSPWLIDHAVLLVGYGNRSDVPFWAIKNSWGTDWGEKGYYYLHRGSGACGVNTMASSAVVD
Description: (§1) Solutions of test compounds in varying concentrations were prepared in 10 μL of dimethyl sulfoxide (DMSO) and then diluted into assay buffer (40 μL, comprising: MES, 50 mM (pH 6.5); EDTA, 2.5 mM; and NaCl, 100 mM); DTT, 2.5 mM; and BSA, 0.01%. Human cathepsin F (0.1 pMoles in 25 μL of assay buffer) was added to the dilutions. The assay solutions were mixed for 5-10 seconds on a shaker plate, covered and incubated for 30 min at room temperature. Z-Phe-Arg-AMC (2 nMoles in 25 μL of assay buffer containing 10% DMSO) was added to the assay solutions and hydrolysis was followed spectrophotometrically (at λ 460 nm) for 5 min. Apparent inhibition constants (Ki) were calculated from the enzyme progress curves using standard mathematical models.

Human cathepsin S = Human cathepsin S (Homo sapiens, UniProt P25774); assay: Cathepsin S Assay; conditions: apparent inhibition constant; substrate Z-Val-Val-Arg-AMC; pH 6.5
Sequence of Human cathepsin S (P25774 115-331): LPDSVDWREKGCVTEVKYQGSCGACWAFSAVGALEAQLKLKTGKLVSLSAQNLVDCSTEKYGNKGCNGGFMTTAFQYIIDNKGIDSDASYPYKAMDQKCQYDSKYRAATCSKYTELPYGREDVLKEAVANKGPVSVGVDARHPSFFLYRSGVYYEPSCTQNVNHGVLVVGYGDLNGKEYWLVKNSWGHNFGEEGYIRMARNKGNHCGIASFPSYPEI
Description: as §1, with “β-mercaptoethanol,” for “DTT,”, “[…].” for “0.01%.”, “S (0.05” for “F (0.1”, “Z-Val-Val-Arg-AMC (4” for “Z-Phe-Arg-AMC (2”

Human cathepsin L = Human cathepsin L (Homo sapiens, UniProt P07711); assay: Cathepsin L Assay; conditions: apparent inhibition constant; substrate Z-Phe-Arg-AMC; pH 5.5
Sequence of Human cathepsin L (P07711 114-333): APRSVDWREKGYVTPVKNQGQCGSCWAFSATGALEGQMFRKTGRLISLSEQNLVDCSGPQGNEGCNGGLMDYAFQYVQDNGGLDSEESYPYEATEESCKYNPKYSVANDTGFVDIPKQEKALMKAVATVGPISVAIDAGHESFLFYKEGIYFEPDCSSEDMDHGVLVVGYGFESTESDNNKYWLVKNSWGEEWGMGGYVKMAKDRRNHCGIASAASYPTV
Description: (§2) Solutions of test compounds in varying concentrations were prepared in 10 μL of dimethyl sulfoxide (DMSO) and then diluted into assay buffer (40 μL, comprising: MES, 50 mM (pH 5.5); EDTA, 2.5 mM; and DTT, 2.5 mM). Human cathepsin L (0.05 pMoles in 25 μL of assay buffer) was added to the dilutions. The assay solutions were mixed for 5-10 seconds on a shaker plate, covered and incubated for 30 min at room temperature. Z-Phe-Arg-AMC (1 nMoles in 25 μL of assay buffer) was added to the assay solutions and hydrolysis was followed spectrophotometrically at (λ 460 nm) for 5 min. Apparent inhibition constants (Ki) were calculated from the enzyme progress curves using standard mathematical models.

Human cathepsin B = Human cathepsin B (Homo sapiens, UniProt P07858); assay: Cathepsin B Assay; conditions: apparent inhibition constant; substrate Z-FR-AMC; pH 6
Description: as §2, with “N,N-bis(2-hydroxyethyl)-2-aminoethanesulfonic acid (BES),” for “MES,”, “6); polyoxyethylenesorbitan monolaurate, 0.05%;” for “5.5); EDTA, 2.5 mM;”, “dithiothreitol (DTT),” for “DTT,”, “B (0.025” for “L (0.05”, “Z-FR-AMC (20” for “Z-Phe-Arg-AMC (1”

SMILES: N#CC1(NC(=O)[C@H](CC(F)(F)Cc2ccccc2)N[C@@H](c2ccc(F)cc2)C(F)(F)F)CC1
- Ki (Human cathepsin F): 500 to 5000 nM
- Ki (Human cathepsin S): < 20 nM
- Ki (Human cathepsin L): 21 to 500 nM
- Ki (Human cathepsin B): 21 to 500 nM

SMILES: N#CC1(NC(=O)[C@H](CC(F)(F)c2ccccc2)N[C@@H](c2ccc(F)cc2)C(F)(F)F)CC1
- Ki (Human cathepsin F): > 5000 nM
- Ki (Human cathepsin S): < 20 nM
- Ki (Human cathepsin L): 500 to 5000 nM
- Ki (Human cathepsin B): > 5000 nM

SMILES: CC(C)CC(F)(F)C[C@H](N[C@@H](c1ccc(F)cc1)C(F)(F)F)C(=O)NC1(C#N)CC1
- Ki (Human cathepsin F): 21 to 500 nM
- Ki (Human cathepsin S): < 20 nM
- Ki (Human cathepsin L): 21 to 500 nM
- Ki (Human cathepsin B): 21 to 500 nM

SMILES: N#CC1(NC(=O)[C@H](CC(F)(F)CC2CC2)N[C@@H](c2ccc(F)cc2)C(F)(F)F)CC1
- Ki (Human cathepsin F): 21 to 500 nM
- Ki (Human cathepsin S): < 20 nM
- Ki (Human cathepsin L): 21 to 500 nM
- Ki (Human cathepsin B): 21 to 500 nM

SMILES: CCC(F)(F)C[C@H](N[C@@H](c1ccc(F)cc1)C(F)(F)F)C(=O)NC1(C#N)CC1
- Ki (Human cathepsin F): 21 to 500 nM
- Ki (Human cathepsin S): < 20 nM
- Ki (Human cathepsin L): 21 to 500 nM
- Ki (Human cathepsin B): 21 to 500 nM

SMILES: CCCC(F)(F)C[C@H](N[C@@H](c1ccc(F)cc1)C(F)(F)F)C(=O)NC1(C#N)CC1
- Ki (Human cathepsin F): 21 to 500 nM
- Ki (Human cathepsin S): < 20 nM
- Ki (Human cathepsin L): 21 to 500 nM
- Ki (Human cathepsin B): 21 to 500 nM

SMILES: CCCCC(F)(F)C[C@H](N[C@@H](c1ccc(F)cc1)C(F)(F)F)C(=O)NC1(C#N)CC1
- Ki (Human cathepsin S): < 20 nM

SMILES: CCC(F)(F)CC[C@H](N[C@@H](c1ccc(F)cc1)C(F)(F)F)C(=O)NC1(C#N)CC1
- Ki (Human cathepsin S): < 20 nM
